Test results from US5843889A, “Glycopeptide antibiotic derivatives” (Eli Lilly and Company, priority 1997, dated 1998).
Converted amounts (≈) assume the structure as drawn.

How the values were obtained:
Entercoccus faecium 180 = test: MIC, standard broth micro-dilution assay; format: cell-based
Procedure: (§1) The MIC's were determined using a standard broth micro-dilution assay.

[1] = system: Haemophilus influenzae RD; test: MIC, standard broth micro-dilution assay; format: cell-based
Procedure: as §1

[2] = system: Staphylococcus aureus 446; test: MIC, standard broth micro-dilution assay; format: cell-based
Procedure: as §1

[3] = system: Staphylococcus aureus 447; test: MIC, standard broth micro-dilution assay; format: cell-based
Procedure: as §1

[4] = system: Staphylococcus aureus 491; test: MIC, standard broth micro-dilution assay; format: cell-based
Procedure: as §1

[5] = system: Staphylococcus epidermidis 270; test: MIC, standard broth micro-dilution assay; format: cell-based
Procedure: as §1

[6] = system: Staphylococcus haemolyticus 105; test: MIC, standard broth micro-dilution assay; format: cell-based
Procedure: as §1

[7] = system: Staphylococcus haemolyticus 415; test: MIC, standard broth micro-dilution assay; format: cell-based
Procedure: as §1

[8] = system: Entercoccus faecalis 2041; test: MIC, standard broth micro-dilution assay; format: cell-based
Procedure: (§2) The formula I compounds have in vitro and in vivo activity against Gram-positive pathogenic bacteria. The MIC's were determined using a standard broth micro-dilution assay.

Entercoccus faecalis 276 = test: MIC, standard broth micro-dilution assay; format: cell-based
Procedure: as §2

[9] = system: Entercoccus gallinarum 245; test: MIC, standard broth micro-dilution assay; format: cell-based
Procedure: as §2

Stapylococcus aureus = test: ED50 in experimentally infected mice; format: in vivo; conditions: mice infected with Stapylococcus aureus, two doses
Streptococcus pyogenes = test: ED50 in experimentally infected mice; format: in vivo; conditions: mice infected with Streptococcus pyogenes, two doses
Streptococcus pneumoniae = test: ED50 in experimentally infected mice; format: in vivo; conditions: mice infected with Streptococcus pneumoniae, two doses
[10] = system: vancomycin-resistant enterococci (Enterococcus faecium and Enterococcus faecalis); test: mean geometric MIC, broth micro-dilution; format: cell-based; conditions: 24-hour incubation
[11] = system: vancomycin-susceptibie enterococci (Enterococcus faecium and Enterococcus faecalis); test: mean geometric MIC, broth micro-dilution; format: cell-based; conditions: 24-hour incubation

SMILES: CNC(CC(C)C)C(=O)NC1C(=O)NC(CC(N)=O)C(=O)NC2C(=O)NC3C(=O)NC(C(=O)NC(C(=O)O)c4cc(O)cc(O)c4-c4cc3ccc4O)C(OC3CC(C)(N)C(O)C(C)O3)c3ccc(c(Cl)c3)Oc3cc2cc(c3OC2OC(CO)C(O)C(O)C2OC2CC(C)(NCc3cccc4c([N+](=O)[O-])cccc34)C(O)C(C)O2)Oc2ccc(cc2Cl)C1O (stereo not shown) [Compound 25, 5-nitro-1-naphthylmethyl]
- MIC (Entercoccus faecium 180): 0.5 µg/mL (≈ 0.281 µM)
- MIC [1]: 32 µg/mL (≈ 18 µM)
- MIC [2]: 0.5 µg/mL (≈ 0.281 µM)
- MIC [3]: 0.25 µg/mL (≈ 0.141 µM)
- MIC [4]: 0.125 µg/mL (≈ 0.0703 µM)
- MIC [5]: 0.5 µg/mL (≈ 0.281 µM)
- MIC [6]: 1 µg/mL (≈ 0.563 µM)
- MIC [7]: 32 µg/mL (≈ 18 µM)
- MIC [8]: 0.25 µg/mL (≈ 0.141 µM)
- MIC (Entercoccus faecalis 276): 0.25 µg/mL (≈ 0.141 µM)
- MIC [9]: ≤ 0.06 µg/mL
- ED50 (Stapylococcus aureus): 0.16 mg/kg/2
- ED50 (Streptococcus pyogenes): 0.087 mg/kg/2
- ED50 (Streptococcus pneumoniae): 0.088 mg/kg/2
- mean geometric MIC, Vancomycin Resistant Strains [10]: 4.0 µg/mL
- mean geometric MIC, Vancomycin Sensitive Strains [11]: 0.22 µg/mL
